Experiments:
[1] = molecular target: T1, aromatic amino acid decarboxylase (AADC) (Homo sapiens, UniProt P20711); conditions: as compared to L-DOPA; cited from earlier work
T1 sequence (P20711 1-480): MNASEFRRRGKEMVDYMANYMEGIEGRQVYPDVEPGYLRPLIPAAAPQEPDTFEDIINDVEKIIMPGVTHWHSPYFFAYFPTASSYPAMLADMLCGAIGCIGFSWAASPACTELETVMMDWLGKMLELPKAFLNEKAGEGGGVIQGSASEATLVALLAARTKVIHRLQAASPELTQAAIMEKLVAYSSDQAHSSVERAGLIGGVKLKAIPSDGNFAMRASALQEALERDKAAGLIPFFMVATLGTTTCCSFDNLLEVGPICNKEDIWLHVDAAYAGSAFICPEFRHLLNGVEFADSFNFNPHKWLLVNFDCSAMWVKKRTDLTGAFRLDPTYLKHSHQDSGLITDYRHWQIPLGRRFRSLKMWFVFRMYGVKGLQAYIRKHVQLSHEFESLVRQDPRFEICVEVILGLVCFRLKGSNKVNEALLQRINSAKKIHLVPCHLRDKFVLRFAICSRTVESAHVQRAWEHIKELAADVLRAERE

[2] = system: PA disease patient with pure akinesia and chief complaint of freezing of gait; test: Example 2: treatment of a PA disease patient with pure akinesia and chief complaint of freezing of gait; type: in vivo, human; conditions: person; DOPS 300 mg/day in 3 portions
Method: Treatment effect of therapeutic agent of the present invention for PA disease patient with pure akinesia and chief complaint of freezing of gait A PA disease patient with pure akinesia and chief complaint of freezing of gait: person. a) DOPS (300 mg/day) was administered in 3 portions, but ineffective. b) DOPS (300 mg/day) and Comtan® (300 mg/day) as a COMT inhibitor were simultaneously administered in 3 portions each. […] Combined use of DOPS and Comtan® (COMT inhibitor) was effective even in a treatment without using an L-DOPA preparation and a dopamine receptor stimulator.

[3] = as compared to L-DOPA; cited from earlier work
patients with PA disease = conditions: cited from earlier work
[4] = system: PA disease patient with pure akinesia and chief complaint of freezing of gait, not responsive to L-DOPA preparation; test: Example 3: treatment of a PA disease patient with pure akinesia and freezing of gait, not responsive to L-DOPA preparation; type: in vivo, human; conditions: person, DOPS 600 mg/day in 3 portions
Source text: A combined use of DOPS and a COMT inhibitor was effective for the “freezing of gait symptom” for which L-DOPA preparation is not effective.

N[C@H](C(=O)O)[C@H](O)c1ccc(O)c(O)c1 [DOPS, L-threo-3,4-dihydroxy-phenylserine]
decarboxylation reaction rate [1]: low | effect on freezing of gait [2]: ineffective | transferability into the brain [3]: low | clinical trial results versus placebo (patients with PA disease; double-blind comparison, DOPS in optically active form): significantly superior to that of placebo | efficacy rate (patients with PA disease; in vivo): not necessarily high | effect on freezing of gait [4]: slight improvement effect
